Here are results for one compound from patent US6127136A, “Detection of dioxin-like compounds by detection of transformed Ah receptor/ARNT complex” (Paracelsian, Inc., priority 1996, dated 2000).

Experiment [1] concerns transformed DRE/AhR/ARNT complex. Description: size exclusion column of DRE/AhR/ARNT complex followed by SDS-PAGE western blot. Format: biochemical, guinea pig (hepatic cytosol). Here is the method:
Size-exclusion column: 10 mL bed volume sephacryl S-100-HR (Sigma, St. Louis, Mo.) packed in Econopac column (Biorad cat. no. 732-1010), equilibrated in HEDG plus 200 mM NaCl. Column was hooked up to a peristaltic pump. Flow rate was 0.5 mL/min. The size exclusion column outlet was attached to a HPLC fluorimeter set at excitation 494 nm and emmission 520 nm to detect fluorescein. DRE used was F-ERD oligo (SEQ. ID. #4) and DRE-D oligo (SEQ. ID. #1) hybridized as described above. Cytosol was prepared as described above. Cytosol was dosed with 1:1000 v/v DMSO (-) or 1:1000 v/v 10 uM 2,3,7,8-tetrachlorodibenzo-p-dioxin in DMSO (+).
Samples were incubated for 2 hours at room temperature as described above to achieve transformation/binding events then put on ice. The entire A sample was loaded onto the Size Exclusion Column and chromatography developed at a flow rate of 0.5 ml/min. Eluant fractions were collected at 2 min intervals (1 mL/fraction). The protocol was repeated for samples B,C,D.
The fluorimeter readings went offscale and usable readings for the fluorescent DRE were not possible. 200 uL subaliquots of fractions 3-10 were submitted to Sodium Dodecyl Sulfate--PolyAcrylamide Gel Electrophoresis (SDS-PAGE) followed by western blotting. Blots of fractions from samples A and B were probed with anti-ARNT (1:200) and anti-rabbit/alkaline phosphatase (1: 1000) and developed with BCIP/NBT. […]
On the technique in general: Size exclusion chromatography separates by hydrodynamic size, large species first.

The target of experiment [2] is transformed Ah receptor/ARNT complex (Cavia porcellus, UniProt Q6J287). Briefly: mini-Ah immunoassay with anti-ARNT detection of transformed Ah receptor/ARNT complex. Format: biochemical, guinea pig (male Hartley, hepatic cytosol). The arrangement: AHR/ARNT heterodimer on DRE gel, anti-ARNT detection; in some samples recombinant baculovirus ARNT (Bradfield) added. The settings on record: for density, average / density: TCDD (+); for density: single replicate. Here is the method:
Male Hartley guinea pigs weighing 300-350 g were obtained from Cornell Research Animal Resources, Cornell University, Ithaca, N.Y. Guinea pigs were anaesthetized and killed with carbon dioxide. Livers were perfused in situ with 100 mL ice-cold perfusion buffer, excised, trimmed of connective tissue, poorly perfused liver and gall bladder and weighed. The liver was minced and five mL of ice-cold HEDG per gram liver were added and the whole homogenized in a 50 mL homogenizer with teflon pestle using at 200 rpm for a total of seven strokes. Crude homogenate was centrifuged at 12,500 RPM in 50 mL tubes in a JA17 rotor in a Beckman J2-MI preparative centifuge at 4 degrees C for 20 minutes.
For a typical mini-Ah immunoassay utilizing 12 samples, 5 mL of Transformed Ah Receptor Affinity Gel slurry described above was pipeted into a 50 mL conical tube. The slurry was washed with 40 mL HEDG and centifuged at 1000 g for 5 min, the supernatant withdrawn and discarded, the pellet washed with 40 mL HEDG, and centrifuged again. After the second centrifugation all but 5 mL of supernatant was withdrawn and the gel thus resuspended in the original volume. 10 mL guinea pig hepatic cytosol was thawed. The thawed cytosol was pooled and then divided into two 5 mL groups and treated with either 5 uL DMSO or 5 uL 10 uM TCDD in DMSO.
Assembly of transformation mixture:In the preferred embodiment of the mini-Ah immunoassay, each sample was composed of one 1.5 mL microfuge tube with the following sequential additions: 90 uL 4 M NaCl/HEDG, 400 uL Transformed Ah Receptor Affinity Gel slurry and 800 uL cytosol (treated with DMSO or TCDD as described above). The three components described above are the minimum components added at that step of the mini-Ah immunoassay. Any additional materials, such as ARNT, anti-ARNT and anti-Rabbit/alkaline phosphatase conjugate, were sometimes also added at this time as described in the specific examples. After assembly of the samples, the tubes were capped and the samples incubated at room temperature for 2 hours with gentle rocking to allow transformation of the Ah receptor to take place, interaction of transformed Ah receptor and ARNT, and binding of the transformed Ah receptor as a heteromer to the DRE oligonucleotide contained on the Transformed Ah Receptor Affinity Gel.
Immunoprobing of transformed Ah receptor: The nitrocellulose membrane was then removed from the ELIFA apparatus, rinsed briefly with water, and placed in 20 mL blocker containing test antibody. All antibodies were incubated with the nitrocellulose membrane for one hour at room temperature. When the test antibody was anti-Ah receptor/alkaine phosphatase conjugate, 100 uL anti-Ah receptor/alkaline phosphatase conjugate (1:200), per 20 mL blocker was used. When anti-ARNT was added to the transformation mixture, anti-Rabbit/alkaline phosphatase conjugate (Sigma, St. Louis, Mo.) diluted 1:1000 (20 uL to 20 mL blocker) was used to probe the membrane. When ARNT, anti-ARNT and anti-Rabbit or anti-ARNT and anti-Rabbit was added to the transformation mixture, the Immunoprobing step was eliminated.
Immunodetection and densitometry: In all cases the nitrocellulose membrane was rinsed prior to immunodetection 3 times for 5 min each with 100 mL TBST, briefly washed in AP development buffer and developed in freshly made BCIP/NBT developer for 5 min, whereupon the color reaction was stopped by washing the membrane in water.
Quantitative data were obtained by scanning the dried membrane in a Microtek 600ZS scanner in gray scale, 300 dpi, 0% brightness, 0% contrast. Densitometric measurements of the dot-blots were made using ScanAnalysis software (Biosoft, Cambridge U.K.).
Cytosol and DRE affinity gel are prepared as described above. Cytosol is dosed with 1:1000 v/v DMSO (-) or 1:1000 v/v 10 uM 2,3,7,8-tetrachlorodibenzo-p-dioxin in DMSO (+).
Immunoprobing of transformed Ah receptor is as described above with the following probes. […]

The mark [3] stands for this setting: Example 3, 220 ng anti-ARNT spike.
Setting [4] is: Example 3, 660 ng anti-ARNT spike.
[5] abbreviates: Example 4, ARNT/anti-ARNT/anti-rabbit.
Setting [6] is: Example 4, anti-ARNT/anti-rabbit, no ARNT added.
Setting [7] is: Example 4, codes 1-4 (ARNT 2 ug, anti-ARNT 2 uL).

Where “and” joins values, the source holds several entries; their conditions need not be identical. Equal values may be shown once.

transformed Ah receptor/ARNT complex, sequence (Q6J287 10-846): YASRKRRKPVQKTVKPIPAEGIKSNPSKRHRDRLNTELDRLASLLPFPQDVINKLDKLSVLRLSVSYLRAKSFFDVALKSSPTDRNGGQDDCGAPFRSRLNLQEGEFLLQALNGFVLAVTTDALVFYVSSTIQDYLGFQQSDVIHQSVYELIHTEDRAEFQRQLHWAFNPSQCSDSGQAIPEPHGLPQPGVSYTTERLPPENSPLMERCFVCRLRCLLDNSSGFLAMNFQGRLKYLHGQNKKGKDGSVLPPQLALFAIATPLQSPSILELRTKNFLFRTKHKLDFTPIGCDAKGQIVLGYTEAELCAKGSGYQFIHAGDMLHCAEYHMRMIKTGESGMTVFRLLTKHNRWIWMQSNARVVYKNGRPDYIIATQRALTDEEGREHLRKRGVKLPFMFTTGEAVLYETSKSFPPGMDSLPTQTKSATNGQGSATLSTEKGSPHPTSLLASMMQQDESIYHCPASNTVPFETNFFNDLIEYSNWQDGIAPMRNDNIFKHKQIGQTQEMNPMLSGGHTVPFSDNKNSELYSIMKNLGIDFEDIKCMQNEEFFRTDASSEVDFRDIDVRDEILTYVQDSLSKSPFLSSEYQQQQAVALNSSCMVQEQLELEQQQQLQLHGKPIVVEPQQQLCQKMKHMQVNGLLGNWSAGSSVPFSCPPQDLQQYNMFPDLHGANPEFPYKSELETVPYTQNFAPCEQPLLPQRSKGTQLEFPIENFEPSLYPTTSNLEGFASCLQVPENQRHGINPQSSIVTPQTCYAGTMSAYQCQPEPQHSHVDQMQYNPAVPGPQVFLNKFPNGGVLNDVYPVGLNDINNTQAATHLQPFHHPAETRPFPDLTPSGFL
transformed Ah receptor/ARNT complex, sequence (Q0WXX3 1-790 partner): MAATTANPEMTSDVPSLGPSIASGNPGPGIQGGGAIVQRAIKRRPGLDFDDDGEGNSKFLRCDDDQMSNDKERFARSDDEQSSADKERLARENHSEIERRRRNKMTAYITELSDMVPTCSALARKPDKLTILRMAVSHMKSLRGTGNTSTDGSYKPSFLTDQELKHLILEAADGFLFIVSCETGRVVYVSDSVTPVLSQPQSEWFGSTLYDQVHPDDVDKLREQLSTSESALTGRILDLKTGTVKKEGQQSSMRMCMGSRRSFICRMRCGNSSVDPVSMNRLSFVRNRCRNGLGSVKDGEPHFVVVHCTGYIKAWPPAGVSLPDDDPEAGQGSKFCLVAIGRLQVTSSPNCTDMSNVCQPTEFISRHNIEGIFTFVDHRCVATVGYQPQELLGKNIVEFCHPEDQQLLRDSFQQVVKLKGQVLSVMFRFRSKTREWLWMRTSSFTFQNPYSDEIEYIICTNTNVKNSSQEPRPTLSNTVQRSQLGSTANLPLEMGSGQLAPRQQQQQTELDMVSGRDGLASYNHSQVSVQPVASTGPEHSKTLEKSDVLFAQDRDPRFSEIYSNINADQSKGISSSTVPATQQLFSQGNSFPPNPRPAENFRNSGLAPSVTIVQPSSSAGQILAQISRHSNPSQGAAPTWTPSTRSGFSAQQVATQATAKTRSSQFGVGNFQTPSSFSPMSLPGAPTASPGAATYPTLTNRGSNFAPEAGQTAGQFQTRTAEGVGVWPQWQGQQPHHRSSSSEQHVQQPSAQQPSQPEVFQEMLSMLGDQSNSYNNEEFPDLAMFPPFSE
transformed Ah receptor/ARNT complex, sequence (P27540 whole entry partner, the tested form may be a part): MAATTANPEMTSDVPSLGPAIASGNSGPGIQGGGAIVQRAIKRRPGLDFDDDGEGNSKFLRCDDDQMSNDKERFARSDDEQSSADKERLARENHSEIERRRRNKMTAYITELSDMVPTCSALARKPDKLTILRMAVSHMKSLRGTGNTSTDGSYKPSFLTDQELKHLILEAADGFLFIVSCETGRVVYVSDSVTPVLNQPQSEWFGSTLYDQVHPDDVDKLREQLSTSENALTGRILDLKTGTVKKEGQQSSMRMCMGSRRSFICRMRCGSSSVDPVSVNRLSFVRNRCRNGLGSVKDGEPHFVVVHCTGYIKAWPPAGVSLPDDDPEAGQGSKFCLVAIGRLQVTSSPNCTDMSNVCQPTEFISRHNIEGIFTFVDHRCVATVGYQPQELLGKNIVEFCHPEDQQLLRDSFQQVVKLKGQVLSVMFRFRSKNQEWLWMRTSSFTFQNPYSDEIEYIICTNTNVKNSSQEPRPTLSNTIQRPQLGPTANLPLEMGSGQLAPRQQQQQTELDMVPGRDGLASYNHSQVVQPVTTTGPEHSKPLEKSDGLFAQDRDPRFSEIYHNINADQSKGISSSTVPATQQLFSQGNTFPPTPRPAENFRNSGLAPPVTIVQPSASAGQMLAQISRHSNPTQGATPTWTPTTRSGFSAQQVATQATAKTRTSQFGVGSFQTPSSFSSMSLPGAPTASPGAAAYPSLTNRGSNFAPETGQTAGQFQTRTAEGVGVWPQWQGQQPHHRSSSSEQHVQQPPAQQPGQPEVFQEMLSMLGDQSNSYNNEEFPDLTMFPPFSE

`Clc1cc2c(cc1Cl)Oc1cc(Cl)c(Cl)cc1O2` [TCDD, 2,3,7,8-tetrachlorodibenzo-p-dioxin]: the “ARNT band in size exclusion fraction 3” value in experiment [1] (sample B (TCDD) vs sample A (DMSO), anti-ARNT blot) was “showed a band at the size of ARNT (circa 97 kD) that was absent in fraction 3 of sample A”. Also, the “rabbit IgG light chain (anti-ARNT) band in size exclusion fraction 5” value in experiment [1] (sample D (TCDD) vs sample C (DMSO), anti-rabbit blot) is given as “showed a band at the size of rabbit IgG light chain (circa 25 kD) that was absent in fraction 5 of sample C”. Moreover, the “density, difference TCDD treated (+) minus DMSO treated (-)” value in experiment [2] (setting [3]) turned out to be 185901; in experiment [2] (setting [4]), 189840. For the same compound, the “density, average” value in experiment [2] (Example 3, 220 ng anti-ARNT spike, average of two replicates) is given as 205498; in experiment [2] (Example 3, 660 ng anti-ARNT spike, average of two replicates), 261285; in experiment [2] (setting [5]) it was 82695; in experiment [2] (Example 4, anti-ARNT/anti-rabbit, no ARNT added, second replicate lost) it was 36309; in experiment [2] (setting [7]), 244132. The density in experiment [2] (setting [3]) was 191233 and 219762; in experiment [2] (setting [4]), 231412 and 291157; in experiment [2] (Example 4, ARNT/anti-ARNT/anti-rabbit in mixture), 85215 and 80175; in experiment [2] (setting [6]), 36309; in experiment [2] (Example 4, codes 1-4 (ARNT 2 ug, anti-ARNT 2 uL; printed Normal)), 233321 and 254942. For the same compound, the “density, difference” value in experiment [2] (setting [5]) amounted to 76074; in experiment [2] (setting [6]), 33501; in experiment [2] (setting [7]), 235535.
